Laboratory results published in publication PMC4842970, “Bioactivity Focus of α-Cyano-4-hydroxycinnamic acid (CHCA) Leads to Effective Multifunctional Aldose Reductase Inhibitors” (Scientific Reports, 2016).

Experiments:
human ALR2 = target: T1, human ALR2 (Homo sapiens, UniProt P15121); test: ALR2 inhibition (in vitro reduction of D,L-glyceraldehyde); assay type: biochemical
T1 construct: purchased WAKO Pure Chemical Industries, Ltd. (Japan); host or cells: baculovirus-insect cell expression system
Protocol: Human ALR2 was purchased from WAKO Pure Chemical Industries, Ltd. (Japan), which was purified from the culture medium of baculovirus-insect cell expression system. […] ALR2 inhibition was determined spectrophotometrically according to the procedure described previously.

Pax3 = Pax3 protein expression in chick embryos (Western blotting); assay type: in vivo; settings: glucose-treated chick embryos, EDD 5
Protocol: Figure 4 5f restored neural tube development and marker expression in chick embryos on EDD 5. Glucose concentration (A) and Pax3 protein expression (B) were determined in chick embryos. The plasma glucose concentration was measured using a glucose oxidase-coupled spectrophotometric assay kit. Proteins were detected using the monoclonal antibody anti-Pax3 diluted 1:1000 (DSHB, USA) and visualized using anti-mouse IgG conjugated with horseradish peroxidase (HRP) and Pierce ECL Western Blotting Substrate (Thermo Fisher Scientific, USA) as the substrate of HRP. […] Values were expressed as mean ± SD in each group (n = 10). *P < 0.05, **P < 0.01 vs. control. ^#P < 0.05, ^##P < 0.01 vs. glucose.
The eyes of EDD 5 chick embryos were separated and lysed in lysis buffer (Beyotime Institute of Biotechnology, China) on ice for 10 min. After centrifugation of the cell suspension at 12000 rpm for 15 min, the protein content of the supernatant was determined with a Pierce BCA protein assay kit (Thermo Fisher Scientific, USA) to ensure equal sample loading. […] Proteins were detected using the monoclonal antibody anti-Pax3 diluted 1:1000 (DSHB, USA) and visualized using anti-mouse IgG conjugated with horseradish peroxidase (HRP) and Pierce ECL Western Blotting Substrate (Thermo Fisher Scientific, USA) as the substrate of HRP.

ALR1 = target: T2, ALR1 (Gallus gallus, UniProt Q5ZK84); test: ALR1 activity in glucose-treated embryos (chicken ALR1 ELISA kit); assay type: in vivo; settings: glucose-treated chick embryos, EDD 5, compared with the model group
T2 construct: Embryos on EDD 5 were homogenized with chicken saline and centrifuged; from tissue; host or cells: EDD 5 chick (leghorn) embryo homogenate supernatant
T2 sequence (Q5ZK84 1-327): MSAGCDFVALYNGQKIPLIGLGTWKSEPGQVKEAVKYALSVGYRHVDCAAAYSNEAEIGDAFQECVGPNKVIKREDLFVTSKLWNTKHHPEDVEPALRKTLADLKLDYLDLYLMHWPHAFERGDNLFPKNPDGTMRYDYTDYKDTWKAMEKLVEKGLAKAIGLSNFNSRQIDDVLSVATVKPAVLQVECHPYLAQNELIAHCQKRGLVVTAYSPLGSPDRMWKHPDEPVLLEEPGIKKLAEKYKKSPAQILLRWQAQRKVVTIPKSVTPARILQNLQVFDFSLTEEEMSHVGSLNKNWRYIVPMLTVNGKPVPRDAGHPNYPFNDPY
Protocol: (§1) Embryos on EDD 5 were homogenized with chicken saline and centrifuged (4 °C, 10000 rpm, 10 min). The supernatant was used for measuring ALR1 activity in the sample. A chicken ALR1 ELISA kit (Jianglai Biotechnology, China) were used for detection. The concentration of ALR1 in the samples was then determined by comparing the OD of the samples to the standard curve.

sorbitol content = test: Sorbitol content in glucose-treated embryos; assay type: in vivo; settings: glucose-treated chick embryos, EDD 5, dose 1 μM
Protocol: (§2) As expected, treatment of 5f decreased ALR2 activity in a dose-dependent manner. […] However, EDA, which is a clinical radical scavenger, was shown no effect on the inhibition of ALR2.
as §1, with “AR” for “ALR1”, “curve. The sorbitol contents of the chick embryo were determined by a Sorbitol Colorimetric Assay Kit (BioVision, USA). In the assay, sorbitol is oxidized to fructose with the proportional development of intense color with an absorbance maximum at 560 nm.” for “curve.”

ALR2 = test: AR (ALR2) activity in glucose-treated embryos (chicken AR ELISA kit); assay type: in vivo; settings: glucose-treated chick embryos, EDD 5, dose 1 μM
Protocol: as §2
as §1, with “AR” for “ALR1”, “curve. The sorbitol contents of the chick embryo were determined by a Sorbitol Colorimetric Assay Kit (BioVision, USA). In the assay, sorbitol is oxidized to fructose with the proportional development of intense color with an absorbance maximum at 560 nm.” for “curve.”

What does the source list for `CC(=O)N[C@H](COCc1ccccc1)C(=O)NCCCNC(=O)/C(C#N)=C/c1ccc(O)cc1` [Compound 5f, (R,E) - N - (3-(2-acetamido-3-(benzyloxy)propanamido)propyl)-2-cyano-3-(4-hydroxyphenyl)acrylamide]?
IC50 (human ALR2; human ALR2, D,L-glyceraldehyde as substrate, read-out: IC50 (ALR2 inhibition)): 72.7 ± 1.6 nM; ALR2 inhibition activity relative to 5d (human ALR2; ratio of inhibition activity vs 5d): about 5 times; Pax3 expression (Pax3): restored; ALR1 level in embryo (ALR1): no obvious change; sorbitol content in embryo (sorbitol content): decreased significantly; ALR2 activity in embryo (ALR2): close to that of the control
